Common to all, as to format: in vivo
The test system of assay [1] is Cotton. As to the kind of experiment: Preemergence Herbicidal Activity, Cotton. To be noted: Gossypium hirsutum, pre-emergence; for plant injury at 250 g/ha: 0.25 kg/ha; for plant injury at 8000 g/ha: 8.0 kg/ha. The text has this:
(§1) The herbicidal data in the following Tables 3 and 4 was obtained in the manner described in PCT published application no. WO 85/01939, previously mentioned, usually employing solutions of the herbicidal compound in 50/50 acetone/water mixtures. In those tables, the test compounds are identified by numbers which correspond to those in Table 1, "kg/ha" is kilograms per hectare, and "% C" is percent control.

The test system of assay [2] is Soybean. As to the kind of experiment: Preemergence Herbicidal Activity, Soybean. To be noted: for plant injury at 8000 g/ha: 8.0 kg/ha. The text has this:
(§2) The herbicidal data in the following Tables 3 and 4 was obtained in the manner described in PCT published application no. […] In those tables, the test compounds are identified by numbers which correspond to those in Table 1, "kg/ha" is kilograms per hectare, and "% C" is percent control.

Assay [3] has as its system Field Corn. As to the kind of experiment: Preemergence Herbicidal Activity, Field Corn. The following applies: Zea mays, pre-emergence; for plant injury at 250 g/ha: 0.25 kg/ha; for plant injury at 8000 g/ha: 8.0 kg/ha.
Description: as §2

The test system of assay [4] is Rice. As to the kind of experiment: Preemergence Herbicidal Activity, Rice. The following applies: Oryza sativa, pre-emergence; for plant injury at 250 g/ha: 0.25 kg/ha.
Description: as §2

In assay [5] the test system is Wheat. Nature of the assay: Preemergence Herbicidal Activity, Wheat. The following applies: Triticum aestivum, pre-emergence; for plant injury at 250 g/ha: 0.25 kg/ha; for plant injury at 8000 g/ha: 8.0 kg/ha.
Description: as §2

Assay [6] relates to Field Bindweed. Nature of the assay: Preemergence Herbicidal Activity, Field Bindweed. The following applies: pre-emergence; for pest or weed control at 250 g/ha: 0.25 kg/ha; for pest or weed control at 8000 g/ha: 8.0 kg/ha.
Description: as §1

The subject of assay [7] is Morningglory. As to the kind of experiment: Preemergence Herbicidal Activity, Morningglory. The following applies: Ipomoea, pre-emergence; for pest or weed control at 250 g/ha: 0.25 kg/ha; for pest or weed control at 8000 g/ha: 8.0 kg/ha.
Description: as §1

Assay [8] has as its system Velvetleaf. As to the kind of experiment: Preemergence Herbicidal Activity, Velvetleaf. The following applies: Abutilon theophrasti, pre-emergence; for pest or weed control at 250 g/ha: 0.25 kg/ha; for pest or weed control at 8000 g/ha: 8.0 kg/ha.
Description: as §1

For assay [9], the system named is Barnyardgrass. Nature of the assay: Preemergence Herbicidal Activity, Barnyardgrass. To be noted: Echinochloa crus-galli, pre-emergence; for pest or weed control at 250 g/ha: 0.25 kg/ha; for pest or weed control at 8000 g/ha: 8.0 kg/ha.
Description: as §2

The test system of assay [10] is Green Foxtail. As to the kind of experiment: Preemergence Herbicidal Activity, Green Foxtail. The following applies: Setaria viridis, pre-emergence; for pest or weed control at 250 g/ha: 0.25 kg/ha; for pest or weed control at 8000 g/ha: 8.0 kg/ha.
Description: as §2

In assay [11] the test system is Johnsongrass. Nature of the assay: Preemergence Herbicidal Activity, Johnsongrass. The following applies: Sorghum halepense, pre-emergence; for pest or weed control at 250 g/ha: 0.25 kg/ha; for pest or weed control at 8000 g/ha: 8.0 kg/ha.
Description: as §2

Assay [12] relates to Cotton. Nature of the assay: Postemergence Herbicidal Activity, Cotton. The following applies: Gossypium hirsutum, post-emergence; for plant injury at 8000 g/ha: 8.0 kg/ha.
Description: as §1

Assay [13] has as its system Soybean. Nature of the assay: Postemergence Herbicidal Activity, Soybean. The following applies: Glycine max, post-emergence; for plant injury at 250 g/ha: 0.25 kg/ha; for plant injury at 8000 g/ha: 8.0 kg/ha.
Description: as §2

In assay [14] the test system is Field Corn. As to the kind of experiment: Postemergence Herbicidal Activity, Field Corn. The following applies: Zea mays, post-emergence; for plant injury at 250 g/ha: 0.25 kg/ha; for plant injury at 8000 g/ha: 8.0 kg/ha.
Description: as §2

In assay [15] the test system is Rice. Nature of the assay: Postemergence Herbicidal Activity, Rice. The following applies: Oryza sativa, post-emergence; for plant injury at 250 g/ha: 0.25 kg/ha.
Description: as §2

The test system of assay [16] is Wheat. As to the kind of experiment: Postemergence Herbicidal Activity, Wheat. To be noted: Triticum aestivum, post-emergence; for plant injury at 250 g/ha: 0.25 kg/ha; for plant injury at 8000 g/ha: 8.0 kg/ha.
Description: as §2

Assay [17] deals with Field Bindweed. Nature of the assay: Postemergence Herbicidal Activity, Field Bindweed. The following applies: post-emergence; for pest or weed control at 8000 g/ha: 8.0 kg/ha.
Description: as §1

Assay [18] relates to Morningglory. Nature of the assay: Postemergence Herbicidal Activity, Morningglory. The following applies: for pest or weed control at 8000 g/ha: 8.0 kg/ha.
Description: as §1

The subject of assay [19] is Velvetleaf. Nature of the assay: Postemergence Herbicidal Activity, Velvetleaf. The following applies: Abutilon theophrasti, post-emergence; for pest or weed control at 8000 g/ha: 8.0 kg/ha.
Description: as §1

The subject of assay [20] is Barnyardgrass. Nature of the assay: Postemergence Herbicidal Activity, Barnyardgrass. To be noted: Echinochloa crus-galli, post-emergence; for pest or weed control at 250 g/ha: 0.25 kg/ha; for pest or weed control at 8000 g/ha: 8.0 kg/ha.
Description: as §2

Assay [21] concerns Green Foxtail. Nature of the assay: Postemergence Herbicidal Activity, Green Foxtail. The following applies: Setaria viridis, post-emergence; for pest or weed control at 250 g/ha: 0.25 kg/ha; for pest or weed control at 8000 g/ha: 8.0 kg/ha.
Description: as §2

The test system of assay [22] is Johnsongrass. Nature of the assay: Postemergence Herbicidal Activity, Johnsongrass. To be noted: Sorghum halepense, post-emergence; for pest or weed control at 250 g/ha: 0.25 kg/ha; for pest or weed control at 8000 g/ha: 8.0 kg/ha.
Description: as §2

The source of these data is patent US4868321A, “Isothiocyanate intermediates” (FMC Corporation, priority 1988, dated 1989).

Counter-ions that a name gives are not always drawn.

Usually plant injury stands for the degree to which the test organism was suppressed or injured, in per cent. What is called pest or weed control is how far the test organism was held down. A low value points to a weak effect. Take `CS(=O)(=O)Nc1cc(-n2nnn(CCCF)c2=O)c(F)cc1Cl` [Compound 2, 1-[4-chloro-2-fluoro-5-(N--methylsulfonylamino)phenyl]-1,4-dihydro-4-(3-fluoropropyl)-5H--tetrazol-5-one]: the plant injury at 250 g/ha was found to be 95% in the assay with Cotton [1]; 20% with Soybean [2] (Glycine max, pre-emergence, 0.25 kg/ha); 40% with Field Corn [3]; 70% in the assay on Rice [4]; 10% in the assay with Wheat [5]; 100% in the assay with Cotton [12] (0.25 kg/ha). In addition, the plant injury at 250 g/ha with Soybean [13] stood at 50%; in the assay on Field Corn [14] it was 80%; with Rice [15], 50%; in the assay with Wheat [16], 20%. The pest or weed control at 250 g/ha worked out at 100% in the assay on Field Bindweed [6]; 100% with Morningglory [7]; 100% in the assay with Velvetleaf [8]; 60% with Barnyardgrass [9]; 40% in the assay with Green Foxtail [10]; 40% in the assay on Johnsongrass [11]. The pest or weed control at 250 g/ha with Field Bindweed [17] (0.25 kg/ha) came out at 100%; in the assay on Morningglory [18] (Ipomoea, post-emergence, 0.25 kg/ha), 100%; in the assay on Velvetleaf [19] (0.25 kg/ha) it was 100%; with Barnyardgrass [20], 40%; in the assay on Green Foxtail [21], 50%; in the assay with Johnsongrass [22] it was 50%.
In the case of `CS(=O)(=O)N(c1cc(-n2nnn(CCCF)c2=O)ccc1Cl)S(C)(=O)=O` [Compound 6], the plant injury at 8000 g/ha in the assay on Cotton [1] amounted to 70%; with Soybean [2] (Glycine max, pre-emergence), 30%; in the assay on Field Corn [3] it was 20%; with Wheat [5], 0%; in the assay with Cotton [12], 90%; in the assay on Soybean [13] it was 50%. In addition, the plant injury at 8000 g/ha was 40% with Field Corn [14], 30% in the assay on Rice [15] (8.0 kg/ha) and 20% in the assay with Wheat [16]. Further, the pest or weed control at 8000 g/ha with Field Bindweed [6] turned out to be 20%; with Morningglory [7] it was 60%; in the assay on Velvetleaf [8], 95%; in the assay with Barnyardgrass [9], 30%; in the assay with Green Foxtail [10], 30%; in the assay with Johnsongrass [11], 20%. The pest or weed control at 8000 g/ha came out at 70% in the assay on Field Bindweed [17]; 100% with Morningglory [18] (Ipomoea, post-emergence); 100% with Velvetleaf [19]; 50% in the assay on Barnyardgrass [20]; 50% in the assay with Green Foxtail [21]; 20% with Johnsongrass [22].
With `CCS(=O)(=O)N(c1cc(-n2nnn(CCCF)c2=O)ccc1Cl)S(=O)(=O)CC` [Compound 18, 1-[4-chloro-3-[bis(N--ethylsulfonyl)-amino]phenyl]-1,4-dihydro-4-(3-fluoropropyl)-5H--tetrazol-5-one], the plant injury at 8000 g/ha is 100% with Cotton [1]; 10% in the assay on Soybean [2] (Glycine max, pre-emergence); 0% in the assay on Field Corn [3]; 0% with Wheat [5]; 60% with Cotton [12]; 60% in the assay on Soybean [13]. The plant injury at 8000 g/ha came to 30% in the assay with Field Corn [14] and 10% in the assay on Wheat [16]. For the same compound, the pest or weed control at 8000 g/ha amounted to 30% in the assay with Field Bindweed [6]; 40% with Morningglory [7]; 95% in the assay with Velvetleaf [8]; 20% in the assay on Barnyardgrass [9]; 10% in the assay with Green Foxtail [10]; 40% in the assay on Johnsongrass [11]. Besides, the pest or weed control at 8000 g/ha is 50% with Field Bindweed [17]; 70% in the assay on Morningglory [18] (Ipomoea, post-emergence); 95% with Velvetleaf [19]; 30% with Barnyardgrass [20]; 30% in the assay with Green Foxtail [21]; 30% in the assay on Johnsongrass [22].
As to `CCCS(=O)(=O)N(c1cc(-n2nnn(CCCF)c2=O)ccc1Cl)S(=O)(=O)CCC` [Compound 23], the plant injury at 8000 g/ha in the assay with Cotton [1] amounted to 30%; in the assay on Soybean [2] (Glycine max, pre-emergence), 10%; with Field Corn [3] it was 90%; with Rice [4] (8.0 kg/ha) it was 20%; with Wheat [5] it was 40%; in the assay with Cotton [12], 60%. Further, the plant injury at 8000 g/ha with Soybean [13] was 40%; in the assay on Field Corn [14], 30%; in the assay on Wheat [16] it was 20%. Further, the pest or weed control at 8000 g/ha in the assay with Field Bindweed [6] amounted to 70%; with Morningglory [7], 70%; in the assay with Velvetleaf [8] it was 100%; in the assay with Barnyardgrass [9], 80%; with Green Foxtail [10], 95%; in the assay on Johnsongrass [11] it was 50%. Moreover, the pest or weed control at 8000 g/ha with Field Bindweed [17] is 50%; in the assay with Morningglory [18] (Ipomoea, post-emergence), 60%; in the assay on Velvetleaf [19], 100%; in the assay on Barnyardgrass [20] it was 40%; in the assay with Green Foxtail [21], 40%; in the assay with Johnsongrass [22], 40%.
On to `CCS(=O)(=O)Nc1cc(-n2nnn(CCCF)c2=O)c(F)cc1Cl` [Compound 31, 1-[4-Chloro-2-fluoro-5-(N--ethylsulfonylamino)phenyl]-1,4-dihydro-4-(3-fluoropropyl)-5H--tetrazol-5-one potassium salt], for which the plant injury at 250 g/ha was found to be 100% in the assay on Cotton [1]; 30% in the assay on Field Corn [3]; 40% in the assay on Rice [4]; 20% in the assay with Wheat [5]; 80% in the assay on Soybean [13]; 30% in the assay with Field Corn [14]. The plant injury at 250 g/ha in the assay on Rice [15] and in the assay with Wheat [16] was 40% throughout. Moreover, in the assay on Soybean [2] (0.25 kg/ha, potassium salt), the “Preemergence Herbicidal Activity” value turned out to be 10 % Control. For the same compound, the pest or weed control at 250 g/ha turned out to be 100% in the assay with Field Bindweed [6]; 100% in the assay on Morningglory [7]; 100% in the assay on Velvetleaf [8]; 95% with Barnyardgrass [9]; 50% in the assay with Green Foxtail [10]; 70% in the assay on Johnsongrass [11]. Moreover, the pest or weed control at 250 g/ha stood at 80% in the assay with Barnyardgrass [20], 60% in the assay with Green Foxtail [21] and 60% in the assay with Johnsongrass [22]. In the assay with Morningglory [18] (0.25 kg/ha, potassium salt), the “Postemergence Herbicidal Activity” value is reported as 100 % Control.
`CCS(=O)(=O)Nc1cc(-n2nnn(C)c2=O)c(F)cc1Cl` [Compound 43, 1-[4-Chloro-2-fluoro-5-(N--ethylsulfonylamino)phenyl]-4,5-dihydro-4-methyl-5H--tetrazol-5-one]: the plant injury at 2000 g/ha was found to be 100% in the assay on Cotton [12] (2.0 kg/ha); 50% in the assay on Soybean [13] (2.0 kg/ha); 30% in the assay with Field Corn [14] (2.0 kg/ha); 50% in the assay on Rice [15] (2.0 kg/ha); 50% in the assay on Wheat [16] (2.0 kg/ha). Moreover, the pest or weed control at 2000 g/ha in the assay with Field Bindweed [17] (2.0 kg/ha) is 100%; in the assay with Morningglory [18] (Ipomoea, post-emergence, 2.0 kg/ha) it was 100%; in the assay with Velvetleaf [19] (2.0 kg/ha), 95%; in the assay on Barnyardgrass [20] (2.0 kg/ha), 50%; with Green Foxtail [21] (2.0 kg/ha), 40%; in the assay on Johnsongrass [22] (2.0 kg/ha) it was 70%.
